Reference: US20110256605A1, “CELLS WITH NON-NATURAL PHYSIOLOGIES DERIVED BY EXPRESSING LIGHT-POWERED PROTON PUMPS IN ONE OR MORE MEMBRANES” (The Regents of the University of California, a California …, priority 2010, published 2011)

Test system: E. coli flagellar motor / cellular pmf
Type: cell-based
Method: Cell culture. We expressed the SAR86 γ-proteobacterial PR-variant (Geneart, Inc) in E. coli cells (RP437 DE3 ΔcheY Cm^R) using a T7 based expression system (pET200, Kan^R, Invitrogen). Cells were grown in T broth (1% Tryptone, 0.5% NaCl) supplemented with kanamycin (25 μg/ml). In mid-log phase, PR expression was induced with 1 mM IPTG and the medium was supplemented with 10 μM ethanolic all-trans-retinal. Cells were collected in late log phase by gentle centrifugation (4500×g, 5 min) and carefully resuspended in motility medium (1 mM PBS (Ambion), 0.1 mM EDTA, pH 7.4). PR^+ denotes cells expressing proteorhodopsin, and PR^− denotes cells (RP437 DE3 ΔcheY Cm^R) without the PR plasmid. […] Unless otherwise noted, all experiments were done in glucose free motility medium and at room temperature.
Instrumentation. […]
To increase the accuracy of the flagellar rotation measurements, a tethered cell geometry was employed (FIG. 2A) which permitted the extended observation of the same bacterium in different illumination conditions. PR^+ cells were allowed to stick to the coverslip via a flagellum, and the angular rotation rate of cells was monitored (FIG. 2A). […]

Compound | Effect on bacterial motility (100 μM, low oxygen cultures, not restored with 50 seconds of green illumination) | IC50 (without green light, azide 0 to 110 mM, read-out: Azide concentration at which pmf dropped to 50% of its original value) [mM]
N#CC(C#N)=NNc1cccc(Cl)c1 [CCCP, carbonyl cyanide 3-chlorophenylhydrazone] | eliminated all bacterial motility | –
[N-]=[N+]=[N-] [azide, sodium azide] | – | 55
